These results are taken from patent US8431708B2, “Fluorescent carbazole compounds for cancer diagnosis” (Academia Sinica, priority 2009, dated 2013).

For the assay, the system named is MRC-5 human lung normal fibroblast cells. The assay can be described thus: Fluorescence intensity as a function of incubation time in normal cells. The settings on record: MRC-5 cells. It counts as cell-based. On the procedure:
The fluorescence intensity of 3,6-bis(1-methyl-4-vinylpyridinium)carbazole diiode (BMVC) described in Kang et al., J. Chin. Chem. Soc., 2005, 52, 1069-1072 and Compound 3 were measured in CL1-0 lung cancer cells and MRC-5 human lung normal fibroblast cells as a function of incubation time.

In the case of `C[n+]1ccc(C=Cc2ccc3[nH]c4ccc(C=Cc5cc[n+](C)cc5)cc4c3c2)cc1.[I-].[I-]` [BMVC, 3,6-bis(1-methyl-4-vinylpyridinium)carbazole diiode], the “fluorescence in normal cells” value is recorded as “weak fluorescence in normal cells”.
